The record followed here is US6376224B1, “Pharmaceutical compositions for eliminating membrane-mediated cell resistance” (Deutsches Krebsforschungszentrum Stiftung des Offentlichen …, priority 1997, dated 2002).

Like-named read-outs stand apart in the source and are kept apart here.

The subject of experiment [1] is KB cells (human carcinoma cells). As to the kind of experiment: Growth inhibition of chemosensitive KB cells after drug incubation and laser exposure. Format: cell-based. Particulars: for IC50: KB (w.t.), 10 min incubation, 3 days culture, read-out: 50% inhibitory concentration (cell growth). The procedure:
(§1) In addition, chemosensitive KB cells (human carcinoma cells) were compared with their chemoresistant KBC5-8 variant. The multi-chemoresistance of the latter is also P-glycoprotein-mediated and was induced experimentally by colchicine addition to the cell culture medium. Before the experiment started, the human carcinoma cells were typsinized and suspended in fresh cell culture medium.
(§2) Then, the cells were incubated with graded concentrations of vinblastin and napavin (photoactivity-labeled cytostatic agent). […] The mouse ascites cells were incubated with these pharmacetuical agents for five minutes. The human tumor cells were incubated for ten minutes. Then, the cell suspensions were transferred by pipetting into plastic dishes or trays and exposed using an argon laser (457.8 nm, 48 mW/cm^2) at room temperature for 1 minute. Thereafter, the cells were washed with fresh cell culture medium twice and cultured in 24-well multidishes or multitrays for three days. At the end of the experiment, cell growth was measured and the 50% inhibitory concentration of the cytostatic agents vinblastin and napavin was determined graphically as usual.

The subject of experiment [2] is KBC5-8 variant (P-glycoprotein-mediated multi-chemoresistance). As to the kind of experiment: Growth inhibition of multi-chemoresistant KBC5-8 cells after drug incubation and laser exposure. It counts as cell-based, human. Particulars: read-out: 50% inhibitory concentration (cell growth). The procedure: as §1, §2
Experiment [3] deals with mouse ascites cells (strain SR, P-glycoprotein-mediated multi-chemoresistance). As to the kind of experiment: Growth inhibition of multi-chemoresistant mouse ascites cells SR after drug incubation and laser exposure. It counts as cell-based. Particulars: for IC50: read-out: 50% inhibitory concentration (cell growth); for 50% growth inhibition concentration in SR relative to wild-type (HD34K) concentration: absence of verapamil. As to the method: (§3) Chemosensitive mouse ascites cells (strain HD34K) were compared with their variant (strain SR) which distinuishes itself by P-glycoprotein-mediated multi-chemoresistance. The chemoresistance of the SR cells developed spontaneously. The mouse ascites cells were suspended in fresh cell culture medium before the experiment started.
(§4) All of the experiments were carried out under flavin-protecting test conditions (Granzow et al., Cancer Res. 55, 4837-4843, (1995)). Freshly prepared cell suspensions were previously incubated at 36.5° C. for 15 minutes. Then, the cells were incubated with graded concentrations of vinblastin and napavin (photoactivity-labeled cytostatic agent). […] The mouse ascites cells were incubated with these pharmacetuical agents for five minutes. The human tumor cells were incubated for ten minutes. Then, the cell suspensions were transferred by pipetting into plastic dishes or trays and exposed using an argon laser (457.8 nm, 48 mW/cm^2) at room temperature for 1 minute. Thereafter, the cells were washed with fresh cell culture medium twice and cultured in 24-well multidishes or multitrays for three days. At the end of the experiment, cell growth was measured and the 50% inhibitory concentration of the cytostatic agents vinblastin and napavin was determined graphically as usual.

Experiment [4] concerns mouse ascites cells (strain HD34K). Briefly: Growth inhibition of chemosensitive mouse ascites cells HD34K after drug incubation and laser exposure. Format: cell-based. Particulars: HD34K (w.t.), 5 min incubation, argon laser 1 min, 3 days culture; for IC50: read-out: 50% inhibitory concentration (cell growth). As to the method:
as §3, §4

Where [5] appears, read: no verapamil, argon laser 457.8 nm 1 min.

Take `CC[C@]1(O)C[C@@H]2CN(CCc3c([nH]c4ccccc34)[C@@](C(=O)OC)(c3cc4c(cc3OC)N(C)[C@H]3[C@@](O)(C(=O)OC)[C@H](OC(C)=O)[C@]5(CC)C=CCN6CC[C@]43[C@@H]65)C2)C1` [VLB, vinblastin, reference compound]: the IC50 in experiment [1] (Homo sapiens, KB, + 1 μM verapamil, argon laser 1 min) is 180 nM; in experiment [1] (Homo sapiens, KB, no verapamil, argon laser 457.8 nm 1 min), 100 to 200 nM; in experiment [1] (setting [5]), 160 nM; in experiment [2] (Homo sapiens), 27000 nM; in experiment [3] (Mus musculus), 7000 nM; in experiment [4] (Mus musculus, + 1 μM verapamil) it was 750 nM. For the same molecule, the IC50 in experiment [4] (Mus musculus, no verapamil) was 660 nM. Also, the “50% growth inhibition concentration in SR relative to wild-type (HD34K) concentration” value in experiment [3] is on record as “about 10 times”. The “50% inhibitory concentration (cell growth)” value in experiment [4] (+ 1 μM verapamil) was “insignificantly higher”.
Regarding `COc1ccc(CCN(C)CCCC(C#N)(c2ccc(OC)c(OC)c2)C(C)C)cc1OC` (stereo not shown) [VPM, verapamil], the “Influence of verapamil on concentration required for 50% growth suppression” value in experiment [1] (KB cells, vinblastin and napavin) was “no influence”.
Turning to napavin, the IC50 in experiment [1] (+ 1 μM verapamil, argon laser 1 min) worked out at 150 nM; in experiment [1] (setting [5]) it was 160 nM; in experiment [2] (KBC5-8 (mdr), + 1 μM verapamil, 10 min incubation, argon laser 1 min, 3 days culture), 1000 nM; in experiment [2] (KBC5-8 (mdr), + 2 μM verapamil, 10 min incubation, argon laser 1 min, 3 days culture), 350 nM; in experiment [2] (KBC5-8 (mdr), no verapamil, 10 min incubation, argon laser 1 min, 3 days culture), 3800 nM; in experiment [3] (SR (mdr), + 1 μM verapamil, 5 min incubation, argon laser 1 min, 3 days culture), 900 nM. In addition, the IC50 in experiment [3] (SR (mdr), + 2 μM verapamil, 5 min incubation, argon laser 1 min, 3 days culture) is 600 nM; in experiment [3] (SR (mdr), no verapamil, 5 min incubation, argon laser 1 min, 3 days culture), 4750 nM; in experiment [4] (+ 1 μM verapamil), 330 nM; in experiment [4] (no verapamil, listed as napavin), around 400 nM; in experiment [4] (no verapamil), 430 nM. In experiment [3], the “50% growth inhibition concentration in SR relative to wild-type (HD34K) concentration” value was 10 times. In addition, the “Inhibitory concentrations SR versus wild-type HD34K” value in experiment [3] (with 1 μM verapamil) is recorded as “no longer differ significantly”; in experiment [3] (with 2 μM verapamil) it was “identical”. Further, the “50% inhibitory concentration (cell growth)” value in experiment [4] (+ 1 μM verapamil) is given as “slightly less”.
